Laboratory results published in US8629173B2, “Solid forms comprising (+)-2-[1-(3-ethoxy-4-methoxyphenyl)-2-methylsulfonylethyl]-4-acetylaminoisoindoline-1,3-dione, compositions thereof, and uses thereof” (Celgene Corporation, priority 2002, dated 2014).

Columns and labels:
LPS-induced serum TNF-α = assay: Mouse LPS-induced serum TNF-α inhibition; format: in vivo; conditions: po
Method: Compounds were tested in this animal model according to previously described methods (Corral et al., 1996, Mol. Med., 2:506-515). Mouse LPS-induced serum TNF-α inhibition (ED50, mg/kg, p.o.)=0.05 for Compound A.

[1] = tested on: CD11b expression on neutrophils; assay: fMLF-induced CD11b expression on neutrophils; format: cell-based; conditions: Neutrophil; human neutrophils, 30 nM fMLF
Method: CD18/CD11b (Mac-1) expression on neutrophils was measured as previously described (Derian et al., 1995, J. Immunol., 154:308-3 17) with the following modifications. Neutrophils were isolated as described above, then resuspended in complete medium at 1×10^6 cells/ml, pretreated with compounds at 10, 1, 0.1, 0.01, and 0 μM in duplicate at a final DMSO concentration of 0.1% for 10 minutes at 37° C. 5% CO2. Cells were then stimulated with 30 nM fMLF for 30 minutes and then chilled to 4° C. Cells were treated with rabbit IgG (Jackson ImmunoResearch Labs, West Grove, Pa., USA) (10 μg/1×10^6 cells) to block Fc receptors, stained with CD18-FITC and CD11b-PE (Becton Dickinson), and analyzed by flow cytometry on a FACSCalibur. CD18/CD11b expression (mean fluorescence) in the absence of stimulation was subtracted from all samples to obtain inhibition curves and calculate IC50 values.

[2] = tested on: moderate to severe plaque-type psoriasis; assay: Phase 2 randomized placebo-controlled study in moderate-to-severe psoriasis; format: in vivo, human
Method: This phase 2, multicenter, randomized, double-blind, placebo-controlled, parallel-group, dose-comparison study evaluated the efficacy and safety of Compound A in subjects with moderate to severe plaque-type psoriasis who were candidates for systemic therapy. This study included a 12-week treatment phase followed by a 4-week observational follow-up phase. A total of 260 subjects were randomized to receive Compound A 20 mg BID, Compound A 20 mg QD, or placebo for 12 weeks. The primary endpoint for this study was the proportion of subjects treated with Compound A who achieved a 75% reduction in Psoriasis Area and Severity Index score (“PASI-75”) at week 12/last treatment in reference to the baseline visit. Last treatment is defined as the last PASI assessment completed during the 12-week treatment phase.

[3] = tested on: severe plaque-type psoriasis; assay: Phase 2 open-label pilot study in patients with severe plaque-type psoriasis
[4] = tested on: Zymosan-induced IL-8 production in human neutrophils; assay: Zymosan-induced IL-8 production; format: cell-based; conditions: Neutrophil, 18 hours
Method: Zymosan A, or the heat-killed yeast Saccharomyces cerevisiae, binds to the adhesion molecule Mac-1 on the neutrophil surface and triggers phagocytosis, cell activation and IL-8 production. Zymosan-induced IL-8 production was measured as previously described (Au et al., 1998, Brit. J. Pharm., 123:1260-1266) with the following modifications. Human neutrophils were purified as described above, plated in 96-well tissue culture plates at 3×10^5 cells/well in complete medium, treated with compounds at 10, 2, 0.4, 0.08, 0.016, 0.0032, 0.00064, and 0 μM in duplicate in a final DMSO concentration of 0.1% for 1 hour at 37° C. 5% CO2. Neutrophils were then stimulated with unopsonized, boiled Zymosan A (Sigma) at 2.5×10^5 particles/well for 18 hours. Supernatants were harvested and tested for IL-8 by ELISA (R&D Systems).

bovine PDE1 = assay: PDE1 enzyme assay; format: biochemical
[5] = target: PDE7 purified from Hut78 human T cells (Homo sapiens, UniProt Q13946); assay: PDE7 enzyme assay; format: biochemical; conditions: 10 nM cAMP
Method: PDE7 is a cAMP-selective PDE expressed mainly in T cells and in skeletal muscle. T cell-derived cytokines such as IL-2 and IFN-γ are potentially regulatable via PDE7 inhibition. […] Compounds were tested against the PDE7 preparation in the presence of 10 nM cAMP as described for PDE4 in Table 1.

[6] = tested on: IL-1β-induced TNF-α production from human PBMC; assay: IL-1β-induced TNF-α production from human PBMC; format: cell-based; conditions: 18 h, read-out: IL-β-induced TNF-α IC50
Method: During the course of inflammatory diseases, TNF-α production is often stimulated by the cytokine IL-1β, rather than by bacterially derived LPS. Compounds were tested for the ability to inhibit IL-1β-induced TNF-α production from human PBMC as described above for LPS-induced TNF-α production, except that the PBMC were isolated from source leukocyte units (Sera-Tec Biologicals, North Brunswick, N.J., USA) by centrifugation on Ficoll-Paque Plus (Amersham Pharmacia, Piscataway, N.J., USA), plated in 96-well tissue culture plates at 3×10^5 cells/well in RPMI-1640 medium (BioWhittaker, Walkersville, Md., USA) containing 10% heat-inactivated fetal bovine serum (Hyclone), 2 mM L-glutamine, 100 U/ml penicillin, and […] (complete medium), pretreated with compounds at 10, 2, 0.4, 0.08, 0.016, 0.0032, 0.00064, and 0 μM in duplicate at a final DMSO concentration of 0.1% at 37° C. in a humidified incubator at 5% CO2 for one hour, then stimulated with 50 ng/ml recombinant human IL-1β (Endogen) for 18 hours.

[7] = 20 mg BID, week 12/last treatment
[8] = 20 mg orally daily for 29 days plus follow-up
[9] = 20 mg orally daily, 29 days, 17 evaluable
[10] = 20 mg orally daily, Day 29, 8 responders
[11] = 20 mg orally daily, Day 29, 19 enrolled
[12] = 20 mg orally daily, Day 29, of enrolled patients
[13] = Nonresponder, 20 mg orally daily

PDE7 purified from Hut78 human T cells, sequence (Q13946 whole entry): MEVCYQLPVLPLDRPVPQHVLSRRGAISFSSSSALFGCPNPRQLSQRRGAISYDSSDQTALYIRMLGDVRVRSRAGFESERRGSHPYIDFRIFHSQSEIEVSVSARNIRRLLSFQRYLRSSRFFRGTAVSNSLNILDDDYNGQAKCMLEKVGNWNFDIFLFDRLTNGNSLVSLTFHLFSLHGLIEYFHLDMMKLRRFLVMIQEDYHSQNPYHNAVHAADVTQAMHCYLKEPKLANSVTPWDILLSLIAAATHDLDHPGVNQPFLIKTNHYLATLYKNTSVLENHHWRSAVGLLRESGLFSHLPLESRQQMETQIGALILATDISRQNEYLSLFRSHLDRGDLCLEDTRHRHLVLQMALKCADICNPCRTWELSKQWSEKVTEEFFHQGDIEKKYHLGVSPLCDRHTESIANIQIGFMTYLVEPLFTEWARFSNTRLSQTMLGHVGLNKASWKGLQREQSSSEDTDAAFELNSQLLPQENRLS

CCOc1cc(C(CS(C)(=O)=O)N2C(=O)c3cccc(NC(C)=O)c3C2=O)ccc1OC (single isomer, unassigned; (+)) [Compound A, (+)-2-[1-(3-ethoxy-4-methoxyphenyl)-2-methylsulfonylethyl]-4-acetylaminoisoindoline-1,3-dione]
ED50 (LPS-induced serum TNF-α): 0.05 mg/kg | IC50 [1]: 74 nM | psoriasis flare during the observational follow-up period ([2]; 20 mg BID group, 4-week follow-up): No subjects | study drug-related serious adverse events ([2]; 20 mg BID or 20 mg QD, 12 weeks): No study drug-related serious adverse events | mean decrease in PASI from baseline [2, 7]: 52% | proportion of subjects achieving PASI-50 [2, 7]: 57% | proportion of subjects achieving PASI-90 [2, 7]: 14% | proportion of subjects achieving PASI-75 ([2]; 20 mg BID, week 12/last treatment, P=0.023 vs placebo): 24% | tolerability and safety ([2]; 12 weeks of treatment): well tolerated and safe | patients with abnormal HLA-DR that had normal HLA-DR at Day 29 ([3]; 20 mg orally daily): Two | patients with abnormal ICAM-1 at baseline that had normal ICAM-1 at Day 29 ([3]; 20 mg orally daily): Three | patients with abnormal K16 at baseline that had normal K16 at Day 29 ([3]; 20 mg orally daily): one | patients with abnormal fillagrin at baseline that had normal fillagrin at Day 29 ([3]; 20 mg orally daily): three | treatment-related adverse event: headache ([3]; 20 mg orally daily for 29 days): 26.3% | treatment-related adverse event: nausea ([3]; 20 mg orally daily for 29 days): 15.8% | deaths [3, 8]: No deaths | premature discontinuation due to an adverse event [3, 8]: nor did any patient prematurely discontinue due to an adverse event | patients with evaluable biopsies demonstrating a 20% reduction in epidermal skin thickness ([3]; 20 mg orally daily for 29 days, Day 29, 15 evaluable): 53.3% | evaluable patients demonstrating improvement in static Physician's Global Assessment (sPGA) [3, 9]: 52.9% | evaluable patients showing a reduction from baseline in psoriasis body surface area (BSA) [3, 9]: 58.8% | mean reduction from baseline in dermal CD83+ cells in responders ([3]; 20 mg orally daily, Day 29): 25.86% | mean reduction from baseline in epidermal CD83+ cells in responders ([3]; 20 mg orally daily, Day 29): 32.50% | reduction of CD11c cells in the dermis in responders ([3]; 20 mg orally daily, Day 29): 18.50% | reduction of CD11c cells in the epidermis in responders ([3]; 20 mg orally daily, Day 29): 40.16% | decrease of dermal T-cells in responders [3, 10]: 28.79% | decrease of epidermal T-cells in responders [3, 10]: 42.56% | enrolled subjects demonstrating improvement in PASI [3, 11]: 73.7% | patients showing >50% reduction from baseline in total PASI score [3, 11]: 15.8% | mean reduction of epidermal thickness ([3]; 20 mg orally daily, Day 29, all 15 evaluable subjects, p=0.015): 20.5% | enrolled patients showing a reduction from baseline in psoriasis BSA [3, 12]: 52.6% | enrolled patients showing an improvement in sPGA [3, 12]: 47.4% | overall safety ([3]; 20 mg p.o. QD for 29 days): safe | Percentage Reduction at Day 29: CD11c, Dermis [3, 13]: −21.19% | Percentage Reduction at Day 29: CD11c, Epidermis [3, 13]: −2.54% | Percentage Reduction at Day 29: CD83+, Dermis [3, 13]: +0.46% | Percentage Reduction at Day 29: CD83+, Epidermis [3, 13]: −16.31% | Percentage Reduction at Day 29: T-cells, Dermis [3, 13]: −17.34% | Percentage Reduction at Day 29: T-cells, Epidermis [3, 13]: +8.74% | Percentage Reduction at Day 29: CD11c, Dermis ([3]; Responder, 20 mg orally daily): −18.50% | Percentage Reduction at Day 29: CD11c, Epidermis ([3]; Responder, 20 mg orally daily): −40.16% | Percentage Reduction at Day 29: CD83+, Dermis ([3]; Responder, 20 mg orally daily): −25.86% | Percentage Reduction at Day 29: CD83+, Epidermis ([3]; Responder, 20 mg orally daily): −32.50% | Percentage Reduction at Day 29: T-cells, Dermis ([3]; Responder, 20 mg orally daily): −28.79% | Percentage Reduction at Day 29: T-cells, Epidermis ([3]; Responder, 20 mg orally daily): −42.56% | reduction of mRNA expression of iNOS in lesional skin (RT-PCR) ([3]; after 29 days of treatment, 20 mg orally daily, p=0.025): 66.5% | IC50 [4]: 94 nM | PDE1 (% inhib at 10 μM) (bovine PDE1; 10 μM): 23% | PDE Specificity Ratio PDE4/PDE1 (bovine PDE1; from Table 1 data): >500 fold | IC50 [5]: 20500 nM | IC50 [6]: 83 nM
